Legend:
Type in all cases: cell-based
[1] = system: Ba/F3 cells expressing EGFR-wt; assay: Growth inhibition (GI50) of Ba/F3 cells expressing EGFR-wt, Celltiter glo; details: Mus musculus, BaF3, 72 h
In short: (§1)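 Antiproliferative activity was assessed in EGFR-mutant or wild-type Ba/F3 cells over 72 h at 37 °C with 5% CO2. Cell viability was determined by CellTiter-Glo, and GI50 taken as the compound concentration inhibiting growth by 50%.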

[2] = system: Ba/F3 cells expressing del19/T790M/C797S (EGFR-DTC); assay: Growth inhibition (GI50) of Ba/F3 cells expressing del19/T790M/C797S (EGFR-DTC), Celltiter glo; details: Mus musculus, BaF3, 72 h
In short: as §1

[3] = system: Ba/F3 cells expressing L858R/T790M/C797S (EGFR-LTC); assay: Growth inhibition (GI50) of Ba/F3 cells expressing L858R/T790M/C797S (EGFR-LTC), Celltiter glo; details: Mus musculus, BaF3, 72 h
In short: as §1

[4] = system: Ba/F3 cells expressing del19/T790M (EGFR-DT); assay: Growth inhibition (GI50) of Ba/F3 cells expressing del19/T790M (EGFR-DT), Celltiter glo; details: Mus musculus, BaF3, 72 h
In short: as §1

[5] = system: Ba/F3 cells expressing L858R/T790M (EGFR-LT); assay: Growth inhibition (GI50) of Ba/F3 cells expressing L858R/T790M (EGFR-LT), Celltiter glo; details: Mus musculus, BaF3, 72 h
In short: as §1

[6] = system: parental Ba/F3 cell line; assay: Growth inhibition (GI50) of the parental Ba/F3 cell line (not introduced with EGFR variants), Celltiter glo; details: Mus musculus, BaF3, 72 h, parental Ba/F3 cells
In short: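 Viable cell count by CellTiter-Glo after 72 h at 37 °C gave GI50 values (μM, 50% growth inhibition). Cells lacking EGFR variants were seeded at 100,000 cells/ml and dosed 4 h later with 4-fold serial dilutions from a 2 mM stock, 0.5% DMSO.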

SMILES | GI50 [1] | GI50 [2] | GI50 [3] | GI50 [4] | GI50 [5] | GI50 [6]
CCc1cc(Nc2ncc(Br)c(Nc3cc4c(cc3NS(C)(=O)=O)CCO4)n2)c(OC)cc1N1CCC(N2CCN(C)CC2)CC1 [Example 184, N-(6-((5-bromo-2-((5-ethyl-2-methoxy-4-(4-(4-methylpiperazin-1-yl)piperidin-1-yl)phenyl)amino)pyrimidin-4-yl)amino)-2,3-dihydrobenzofuran-5-yl)methanesulfonamide] | 25 to 100 nM | 100 to 500 nM | 1 to 25 nM | 1 to 25 nM | 1 to 25 nM | 500 to 2000 nM
COc1cc(N2CCC(N3CCCN(C)CC3)CC2)c(C)cc1Nc1ncc(Br)c(Nc2cc3c(cc2NS(C)(=O)=O)CCO3)n1 [Example 188, N-(6-((5-bromo-2-((2-methoxy-5-methyl-4-(4-(4-methyl-1,4-diazepan-1-yl)piperidin-1-yl)phenyl)amino)pyrimidin-4-yl)amino)-2,3-dihydrobenzofuran-5-yl)methanesulfonamide] | 100 to 500 nM | 1 to 25 nM | 1 to 25 nM | 25 to 100 nM | 25 to 100 nM | 500 to 2000 nM
COc1cc(N2CCC(N3CCCN(C)CC3)CC2)c(Cl)cc1Nc1ncc(Br)c(Nc2cc3c(cc2NS(C)(=O)=O)CCO3)n1 [Example 189, N-(6-((5-bromo-2-((5-chloro-2-methoxy-4-(4-(4-methyl-1,4-diazepan-1-yl)piperidin-1-yl)phenyl)amino)pyrimidin-4-yl)amino)-2,3-dihydrobenzofuran-5-yl)methanesulfonamide] | 25 to 100 nM | 1 to 25 nM | 1 to 25 nM | 1 to 25 nM | 25 to 100 nM | 500 to 2000 nM
CCc1cc(Nc2ncc(Cl)c(Nc3ccc4nccnc4c3P(C)(C)=O)n2)c(OC)cc1N1CCC(N2CCN(C)CC2)CC1 [Example 190, (6-((5-chloro-2-((5-ethyl-2-methoxy-4-(4-(4-methylpiperazin-1-yl)piperidin-1-yl)phenyl)amino)pyrimidin-4-yl)amino)quinoxalin-5-yl)dimethylphosphine oxide] | 100 to 500 nM | 25 to 100 nM | 25 to 100 nM | 1 to 25 nM | 1 to 25 nM | 100 to 500 nM
CCc1cc(Nc2ncc(Br)c(Nc3cc(Cl)ccc3NS(C)(=O)=O)n2)c(OC)cc1N1CCC(N2CCN(C)CC2)CC1 [Example 191, N-(2-((5-bromo-2-((5-ethyl-2-methoxy-4-(4-(4-methylpiperazin-1-yl)piperidin-1-yl)phenyl)amino)pyrimidin-4-yl)amino)-4-chlorophenyl)methanesulfonamide] | 100 to 500 nM | 1 to 25 nM | 1 to 25 nM | 1 to 25 nM | 1 to 25 nM | 2000 to 10000 nM
CCc1cc(Nc2ncc(Br)c(Nc3ccc4nccnc4c3P(C)(C)=O)n2)c(OC)cc1N1CCC(N2CCN(C)CC2)CC1 [Example 192, (6-((5-bromo-2-((5-ethyl-2-methoxy-4-(4-(4-methylpiperazin-1-yl)piperidin-1-yl)phenyl)amino)pyrimidin-4-yl)amino)quinoxalin-5-yl)dimethylphosphine oxide] | 25 to 100 nM | 1 to 25 nM | 1 to 25 nM | 1 to 25 nM | 1 to 25 nM | 100 to 500 nM
Cc1cc(Nc2ncc(Br)c(Nc3ccc4nccnc4c3P(C)(C)=O)n2)c(Cl)cc1N1CCC(N2CCN(C)CC2)CC1 [Example 193, (6-((5-bromo-2-((2-chloro-5-methyl-4-(4-(4-methylpiperazin-1-yl)piperidin-1-yl)phenyl)amino)pyrimidin-4-yl)amino)quinoxalin-5-yl)dimethylphosphine oxide] | 100 to 500 nM | 1 to 25 nM | 25 to 100 nM | 100 to 500 nM | 100 to 500 nM | 500 to 2000 nM
COc1cc(N2CCC(N3CCN(C)CC3)CC2)c(Cl)cc1Nc1ncc(Br)c(Nc2ccc3nccnc3c2P(C)(C)=O)n1 [Example 194, (6-((5-bromo-2-((5-chloro-2-methoxy-4-(4-(4-methylpiperazin-1-yl)piperidin-1-yl)phenyl)amino)pyrimidin-4-yl)amino)quinoxalin-5-yl)dimethylphosphine oxide] | 100 to 500 nM | 25 to 100 nM | 25 to 100 nM | 25 to 100 nM | 100 to 500 nM | 100 to 500 nM
COc1cc(N2CCC(N3CCCC(N(C)C)C3)CC2)c(C)cc1Nc1ncc(Br)c(Nc2cc3c(cc2NS(C)(=O)=O)CCO3)n1 (stereo not drawn) [Example 196, N-(6-((5-bromo-2-((4-(3-(dimethylamino)-[1,4′-bipiperidin]-1′-yl)-2-methoxy-5-methylphenyl)amino)pyrimidin-4-yl)amino)-2,3-dihydrobenzofuran-5-yl)methanesulfonamide] | 500 to 2000 nM | 1 to 25 nM | 100 to 500 nM | 1 to 25 nM | 25 to 100 nM | 2000 to 10000 nM
Cc1cc(Nc2ncc(Cl)c(Nc3cc4c(cc3NS(C)(=O)=O)CCO4)n2)c(Cl)cc1N1CCC(N2CCCC(N(C)C)C2)CC1 (stereo not drawn) [Example 197, N-(6-((5-chloro-2-((2-chloro-4-(3-(dimethylamino)-[1,4′-bipiperidin]-1′-yl)-5-methylphenyl)amino)pyrimidin-4-yl)amino)-2,3-dihydrobenzofuran-5-yl)methanesulfonamide] | 100 to 500 nM | 25 to 100 nM | 100 to 500 nM | 1 to 25 nM | 100 to 500 nM | 2000 to 10000 nM
COc1ccc(NS(C)(=O)=O)c(Nc2nc(Nc3cc(C)c(N4CCC(N5CCN(C)CC5)CC4)cc3OC)ncc2Cl)c1 [Example 199, N-(2-((5-chloro-2-((2-methoxy-5-methyl-4-(4-(4-methylpiperazin-1-yl)piperidin-1-yl)phenyl)amino)pyrimidin-4-yl)amino)-4-methoxyphenyl)methanesulfonamide] | 100 to 500 nM | 1 to 25 nM | 1 to 25 nM | 1 to 25 nM | 25 to 100 nM | 100 to 500 nM
COc1ccc(NS(C)(=O)=O)c(Nc2nc(Nc3cc(C)c(N4CCC(N5CCN(C)CC5)CC4)cc3Cl)ncc2Cl)c1 [Example 200, N-(2-((5-chloro-2-((2-chloro-5-methyl-4-(4-(4-methylpiperazin-1-yl)piperidin-1-yl)phenyl)amino)pyrimidin-4-yl)amino)-4-methoxyphenyl)methanesulfonamide] | 100 to 500 nM | 25 to 100 nM | 25 to 100 nM | 1 to 25 nM | 25 to 100 nM | 100 to 500 nM
COc1ccc(NS(C)(=O)=O)c(Nc2nc(Nc3cc(Cl)c(N4CCC(N5CCN(C)CC5)CC4)cc3OC)ncc2Cl)c1 [Example 201, N-(2-((5-chloro-2-((5-chloro-2-methoxy-4-(4-(4-methylpiperazin-1-yl)piperidin-1-yl)phenyl)amino)pyrimidin-4-yl)amino)-4-methoxyphenyl)methanesulfonamide] | 1 to 25 nM | 1 to 25 nM | 1 to 25 nM | 1 to 25 nM | 1 to 25 nM | 25 to 100 nM
COc1ccc(NS(C)(=O)=O)c(Nc2nc(Nc3cc(Cl)c(N4CCC(N5CCN(C)CC5)CC4)cc3Cl)ncc2Cl)c1 [Example 202, N-(2-((5-chloro-2-((2,5-dichloro-4-(4-(4-methylpiperazin-1-yl)piperidin-1-yl)phenyl)amino)pyrimidin-4-yl)amino)-4-methoxyphenyl)methanesulfonamide] | 100 to 500 nM | 25 to 100 nM | 25 to 100 nM | 1 to 25 nM | 25 to 100 nM | 100 to 500 nM
CCc1cc(Nc2ncc(Cl)c(Nc3cc(OC)ccc3NS(C)(=O)=O)n2)c(OC)cc1N1CCC(N2CCN(C)CC2)CC1 [Example 203, N-(2-((5-chloro-2-((5-ethyl-2-methoxy-4-(4-(4-methylpiperazin-1-yl)piperidin-1-yl)phenyl)amino)pyrimidin-4-yl)amino)-4-methoxyphenyl)methanesulfonamide] | 500 to 2000 nM | 25 to 100 nM | 25 to 100 nM | 1 to 25 nM | 100 to 500 nM | 2000 to 10000 nM
COc1ccc(NS(C)(=O)=O)c(Nc2nc(Nc3cc(C)c(N4CCC(N5CCCN(C)CC5)CC4)cc3OC)ncc2Cl)c1 [Example 204, N-(2-((5-chloro-2-((2-methoxy-5-methyl-4-(4-(4-methyl-1,4-diazepan-1-yl)piperidin-1-yl)phenyl)amino)pyrimidin-4-yl)amino)-4-methoxyphenyl)methanesulfonamide] | 25 to 100 nM | 1 to 25 nM | 25 to 100 nM | 1 to 25 nM | 25 to 100 nM | 2000 to 10000 nM
CN1CCN(C2CCN(c3cc(Cl)c(Nc4ncc(Cl)c(Nc5cc6c(cc5NS(C)(=O)=O)CCO6)n4)cc3Cl)CC2)CC1 [Example 205, N-(6-((5-chloro-2-((2,5-dichloro-4-(4-(4-methylpiperazin-1-yl)piperidin-1-yl)phenyl)amino)pyrimidin-4-yl)amino)-2,3-dihydrobenzofuran-5-yl)methanesulfonamide] | 25 to 100 nM | 1 to 25 nM | 1 to 25 nM | 1 to 25 nM | 1 to 25 nM | 2000 to 10000 nM

Reference: patent US20240228458A1, “PYRIMIDINE DERIVATIVE HAVING PROTEIN KINASE INHIBITORY ACTIVITY, AND THERAPEUTIC PHARMACEUTICAL COMPOSITION COMPRISING SAME” (THERAPEX CO., LTD., priority 2021, published 2024)
